Columns and labels:
Assay in all cases: KINOMEscan competition binding
Conditions in all cases: compound 0.1 µM
ERBB2 (human) = ERBB2 (human) (UniProt P04626)
[1] = system: PIK3CA (human), P42336 [C420R]
MAPK12 (human) = MAPK12 (human) (UniProt P53778)
CDK17 (human) = CDK17 (human) (UniProt Q00537)
RIPK2 (human) = RIPK2 (human) (UniProt O43353)
ULK3 (human) = ULK3 (human) (UniProt Q6PHR2)
STK3 (human) = STK3 (human) (UniProt Q13188)
RPS6KA3 KD2 (human) = RPS6KA3 KD2 (human) (UniProt P51812)
PI4KB (human) = PI4KB (human) (UniProt Q9UBF8)
PHKG1 (human) = PHKG1 (human) (UniProt Q16816)
TLK1 (human) = TLK1 (human) (UniProt Q9UKI8)
DCLK1 (human) = DCLK1 (human) (UniProt O15075)
[2] = system: PIK3CA (human), P42336 [I800L]
CDC42BPA (human) = CDC42BPA (human) (UniProt Q5VT25)
SLK (human) = SLK (human) (UniProt Q9H2G2)
YSK4 (human) = YSK4 (human) (UniProt Q56UN5)
PAK7 (human) = PAK7 (human) (UniProt Q9P286)
LATS1 (human) = LATS1 (human) (UniProt O95835)
TNNI3K (human) = TNNI3K (human) (UniProt Q59H18)
PIK3CD (human) = PIK3CD (human) (UniProt O00329)
MAP4K2 (human) = MAP4K2 (human) (UniProt Q12851)
CAMKK2 (human) = CAMKK2 (human) (UniProt Q96RR4)
FGFR4 (human) = FGFR4 (human) (UniProt P22455)
TXK (human) = TXK (human) (UniProt P42681)
CAMK2G (human) = CAMK2G (human) (UniProt Q13555)
VRK2 (human) = VRK2 (human) (UniProt Q86Y07)
PIP4K2C (human) = PIP4K2C (human) (UniProt Q8TBX8)
PRKD3 (human) = PRKD3 (human) (UniProt O94806)
MAP3K7 (human) = MAP3K7 (human) (UniProt O43318)
PIK3CG (human) = PIK3CG (human) (UniProt P48736)
PLK3 (human) = PLK3 (human) (UniProt Q9H4B4)
TLK2 (human) = TLK2 (human) (UniProt Q86UE8)
MARK4 (human) = MARK4 (human) (UniProt Q96L34)
ACVR2B (human) = ACVR2B (human) (UniProt Q13705)
PDPK1 (human) = PDPK1 (human) (UniProt O15530)
[3] = system: MET (human), P08581 [M1250T]
RET (human) = RET (human) (UniProt P07949)
[4] = system: FGFR3 (human), P22607 [G697C]
DMPK (human) = DMPK (human) (UniProt Q09013)
HUNK (human) = HUNK (human) (UniProt P57058)
Sequence of HUNK (human) (P57058 whole entry, looked up): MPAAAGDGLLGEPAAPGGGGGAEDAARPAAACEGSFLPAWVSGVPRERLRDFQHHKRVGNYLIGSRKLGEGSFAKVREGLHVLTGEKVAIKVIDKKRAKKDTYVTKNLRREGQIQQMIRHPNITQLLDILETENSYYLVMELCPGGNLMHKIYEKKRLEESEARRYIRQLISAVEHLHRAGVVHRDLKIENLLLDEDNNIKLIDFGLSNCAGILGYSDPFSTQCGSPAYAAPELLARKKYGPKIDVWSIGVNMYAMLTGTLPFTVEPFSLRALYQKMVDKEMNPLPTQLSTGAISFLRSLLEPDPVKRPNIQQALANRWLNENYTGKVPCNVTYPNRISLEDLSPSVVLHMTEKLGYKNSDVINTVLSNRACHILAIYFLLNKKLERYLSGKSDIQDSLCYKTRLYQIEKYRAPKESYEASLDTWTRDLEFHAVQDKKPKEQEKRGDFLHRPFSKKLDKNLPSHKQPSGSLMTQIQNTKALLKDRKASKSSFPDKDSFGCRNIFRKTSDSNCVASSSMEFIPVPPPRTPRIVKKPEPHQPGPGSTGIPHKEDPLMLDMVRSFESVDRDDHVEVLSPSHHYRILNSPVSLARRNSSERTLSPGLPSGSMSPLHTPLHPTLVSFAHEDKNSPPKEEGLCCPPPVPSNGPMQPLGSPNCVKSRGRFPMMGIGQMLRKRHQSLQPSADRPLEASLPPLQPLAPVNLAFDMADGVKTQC

Sequence of RIPK2 (human) (O43353 whole entry, looked up): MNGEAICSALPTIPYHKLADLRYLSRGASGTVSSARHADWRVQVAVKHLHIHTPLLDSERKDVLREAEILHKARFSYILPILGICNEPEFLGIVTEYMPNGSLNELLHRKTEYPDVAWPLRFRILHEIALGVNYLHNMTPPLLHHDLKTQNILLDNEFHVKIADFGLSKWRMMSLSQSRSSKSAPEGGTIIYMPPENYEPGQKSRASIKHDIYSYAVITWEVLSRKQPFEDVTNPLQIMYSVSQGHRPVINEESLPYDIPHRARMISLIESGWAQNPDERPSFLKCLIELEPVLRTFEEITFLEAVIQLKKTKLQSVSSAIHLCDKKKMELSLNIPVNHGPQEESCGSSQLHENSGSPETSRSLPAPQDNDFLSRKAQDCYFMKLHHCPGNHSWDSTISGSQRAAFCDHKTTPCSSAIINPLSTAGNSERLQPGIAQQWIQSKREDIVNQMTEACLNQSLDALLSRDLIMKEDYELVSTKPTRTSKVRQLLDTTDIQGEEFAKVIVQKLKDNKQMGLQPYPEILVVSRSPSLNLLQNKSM
Sequence of PHKG1 (human) (Q16816 whole entry, looked up): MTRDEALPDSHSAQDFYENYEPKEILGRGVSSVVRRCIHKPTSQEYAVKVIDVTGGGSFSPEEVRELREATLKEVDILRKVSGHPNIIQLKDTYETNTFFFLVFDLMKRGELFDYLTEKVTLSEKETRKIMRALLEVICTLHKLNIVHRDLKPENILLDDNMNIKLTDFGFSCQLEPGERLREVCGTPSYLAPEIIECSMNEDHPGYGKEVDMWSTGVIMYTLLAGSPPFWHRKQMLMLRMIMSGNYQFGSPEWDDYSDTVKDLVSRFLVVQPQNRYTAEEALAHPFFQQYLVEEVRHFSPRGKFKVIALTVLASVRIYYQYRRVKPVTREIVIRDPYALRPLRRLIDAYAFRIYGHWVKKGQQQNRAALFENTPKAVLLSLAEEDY
Sequence of RPS6KA3 KD2 (human) (P51812 whole entry, looked up): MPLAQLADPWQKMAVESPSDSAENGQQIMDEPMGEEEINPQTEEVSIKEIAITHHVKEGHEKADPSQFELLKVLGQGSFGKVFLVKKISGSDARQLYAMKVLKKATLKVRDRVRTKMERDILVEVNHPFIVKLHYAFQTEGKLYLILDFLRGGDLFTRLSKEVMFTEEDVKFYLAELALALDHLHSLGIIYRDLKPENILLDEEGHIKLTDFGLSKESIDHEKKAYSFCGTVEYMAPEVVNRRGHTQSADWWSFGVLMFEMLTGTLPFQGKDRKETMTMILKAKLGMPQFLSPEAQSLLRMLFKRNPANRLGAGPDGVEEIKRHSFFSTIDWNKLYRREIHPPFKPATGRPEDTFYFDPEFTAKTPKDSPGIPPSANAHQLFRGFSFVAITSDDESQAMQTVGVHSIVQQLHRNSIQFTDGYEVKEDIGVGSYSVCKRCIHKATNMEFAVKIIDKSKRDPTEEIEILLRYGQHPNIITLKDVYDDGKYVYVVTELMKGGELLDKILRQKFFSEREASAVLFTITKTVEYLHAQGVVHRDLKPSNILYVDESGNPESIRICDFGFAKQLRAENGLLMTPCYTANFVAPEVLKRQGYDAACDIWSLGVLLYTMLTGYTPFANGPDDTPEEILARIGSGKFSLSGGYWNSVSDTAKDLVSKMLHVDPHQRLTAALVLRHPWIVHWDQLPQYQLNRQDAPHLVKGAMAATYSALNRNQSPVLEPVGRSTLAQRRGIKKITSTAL
Sequence of PI4KB (human) (Q9UBF8 whole entry, looked up): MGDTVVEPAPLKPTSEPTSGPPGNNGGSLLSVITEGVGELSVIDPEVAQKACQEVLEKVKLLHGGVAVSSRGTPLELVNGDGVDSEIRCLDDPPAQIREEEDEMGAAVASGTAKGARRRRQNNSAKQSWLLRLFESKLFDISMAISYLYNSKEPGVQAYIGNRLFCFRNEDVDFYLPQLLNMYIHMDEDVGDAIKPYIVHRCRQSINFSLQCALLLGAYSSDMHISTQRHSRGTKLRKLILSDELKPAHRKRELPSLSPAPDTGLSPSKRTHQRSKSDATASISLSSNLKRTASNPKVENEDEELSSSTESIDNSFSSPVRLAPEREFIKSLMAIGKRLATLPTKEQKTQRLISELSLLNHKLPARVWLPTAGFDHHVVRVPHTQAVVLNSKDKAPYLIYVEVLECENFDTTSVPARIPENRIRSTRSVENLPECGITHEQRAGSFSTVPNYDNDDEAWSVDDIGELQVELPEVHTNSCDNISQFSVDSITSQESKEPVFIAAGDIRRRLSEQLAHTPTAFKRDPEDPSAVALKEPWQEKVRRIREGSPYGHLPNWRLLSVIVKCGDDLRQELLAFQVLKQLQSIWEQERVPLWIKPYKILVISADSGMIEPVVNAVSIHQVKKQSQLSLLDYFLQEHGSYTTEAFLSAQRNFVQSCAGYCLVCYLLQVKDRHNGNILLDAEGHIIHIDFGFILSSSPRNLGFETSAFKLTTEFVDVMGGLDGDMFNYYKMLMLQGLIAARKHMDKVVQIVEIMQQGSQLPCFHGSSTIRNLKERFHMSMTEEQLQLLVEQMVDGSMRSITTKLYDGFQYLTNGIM
Sequence of PIK3CA (human), P42336 [I800L] (P42336 whole entry I800L, looked up): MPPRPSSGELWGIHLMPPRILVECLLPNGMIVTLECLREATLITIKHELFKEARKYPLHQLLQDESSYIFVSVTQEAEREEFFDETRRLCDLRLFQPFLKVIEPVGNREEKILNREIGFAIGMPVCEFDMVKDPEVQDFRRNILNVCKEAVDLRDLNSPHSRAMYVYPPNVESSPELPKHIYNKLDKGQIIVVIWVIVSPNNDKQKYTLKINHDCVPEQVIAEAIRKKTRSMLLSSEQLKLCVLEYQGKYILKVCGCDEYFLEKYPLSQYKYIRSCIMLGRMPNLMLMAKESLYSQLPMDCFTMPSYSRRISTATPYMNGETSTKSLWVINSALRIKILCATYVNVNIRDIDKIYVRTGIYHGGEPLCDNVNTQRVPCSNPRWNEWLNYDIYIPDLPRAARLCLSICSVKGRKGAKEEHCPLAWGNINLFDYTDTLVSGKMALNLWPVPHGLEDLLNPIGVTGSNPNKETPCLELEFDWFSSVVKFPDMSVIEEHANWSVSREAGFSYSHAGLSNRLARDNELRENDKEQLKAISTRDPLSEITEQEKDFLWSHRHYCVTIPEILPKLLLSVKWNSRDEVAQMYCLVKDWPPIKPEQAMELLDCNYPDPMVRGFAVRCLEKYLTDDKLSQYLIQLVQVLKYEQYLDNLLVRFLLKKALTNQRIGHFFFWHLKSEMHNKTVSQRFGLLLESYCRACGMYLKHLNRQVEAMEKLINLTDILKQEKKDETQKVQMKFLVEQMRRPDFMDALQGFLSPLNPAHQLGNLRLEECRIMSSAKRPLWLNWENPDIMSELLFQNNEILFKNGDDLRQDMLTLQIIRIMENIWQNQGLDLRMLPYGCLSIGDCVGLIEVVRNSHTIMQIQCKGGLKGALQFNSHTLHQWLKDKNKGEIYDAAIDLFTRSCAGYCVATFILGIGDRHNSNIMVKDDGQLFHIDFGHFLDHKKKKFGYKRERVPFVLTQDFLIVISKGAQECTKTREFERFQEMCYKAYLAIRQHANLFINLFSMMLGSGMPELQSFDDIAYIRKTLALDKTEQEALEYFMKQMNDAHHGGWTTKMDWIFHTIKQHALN
Sequence of TLK1 (human) (Q9UKI8 whole entry, looked up): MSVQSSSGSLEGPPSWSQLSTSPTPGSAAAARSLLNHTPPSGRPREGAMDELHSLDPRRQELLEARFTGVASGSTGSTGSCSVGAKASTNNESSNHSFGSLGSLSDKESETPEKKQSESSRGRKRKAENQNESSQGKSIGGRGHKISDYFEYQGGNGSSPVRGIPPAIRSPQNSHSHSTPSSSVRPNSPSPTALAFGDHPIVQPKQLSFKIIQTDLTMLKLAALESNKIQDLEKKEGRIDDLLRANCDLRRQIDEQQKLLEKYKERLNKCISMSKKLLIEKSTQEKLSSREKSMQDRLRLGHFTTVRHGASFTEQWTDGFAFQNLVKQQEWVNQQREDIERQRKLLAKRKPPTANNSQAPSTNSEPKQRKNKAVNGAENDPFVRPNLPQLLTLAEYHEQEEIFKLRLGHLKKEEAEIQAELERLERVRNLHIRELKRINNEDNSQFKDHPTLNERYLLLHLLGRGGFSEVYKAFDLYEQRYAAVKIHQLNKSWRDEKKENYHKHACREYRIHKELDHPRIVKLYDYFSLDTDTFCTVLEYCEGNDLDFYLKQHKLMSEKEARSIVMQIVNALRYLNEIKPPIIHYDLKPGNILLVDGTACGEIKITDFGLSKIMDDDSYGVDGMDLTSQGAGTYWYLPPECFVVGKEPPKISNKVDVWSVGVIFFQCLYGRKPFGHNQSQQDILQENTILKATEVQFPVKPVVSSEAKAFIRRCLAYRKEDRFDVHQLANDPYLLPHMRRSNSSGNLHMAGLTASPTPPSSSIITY
Sequence of PIK3CA (human), P42336 [C420R] (P42336 whole entry C420R, looked up): as the sequence (P42336 whole entry I800L, looked up) above, with C420R, L800I counted along it

## CCc1ccc(C(=O)Nc2cc(CN3CCN(C)CC3)cc(C(F)(F)F)c2)cc1C#Cc1cnc2ccnn2c1
ERBB2 (human)
  kinase still bound, per cent of control: 61%
[1]
  kinase still bound, per cent of control: 100%
MAPK12 (human)
  kinase still bound, per cent of control: 72%
CDK17 (human)
  kinase still bound, per cent of control: 100%
RIPK2 (human)
  kinase still bound, per cent of control: 56%
ULK3 (human)
  kinase still bound, per cent of control: 100%
STK3 (human)
  kinase still bound, per cent of control: 100%
RPS6KA3 KD2 (human)
  kinase still bound, per cent of control: 100%
PI4KB (human)
  kinase still bound, per cent of control: 100%
PHKG1 (human)
  kinase still bound, per cent of control: 85%
TLK1 (human)
  kinase still bound, per cent of control: 100%
DCLK1 (human)
  kinase still bound, per cent of control: 100%
[2]
  kinase still bound, per cent of control: 100%
CDC42BPA (human)
  kinase still bound, per cent of control: 84%
SLK (human)
  kinase still bound, per cent of control: 66%
YSK4 (human)
  kinase still bound, per cent of control: 100%
PAK7 (human)
  kinase still bound, per cent of control: 85%
LATS1 (human)
  kinase still bound, per cent of control: 100%
TNNI3K (human)
  kinase still bound, per cent of control: 56%
PIK3CD (human)
  kinase still bound, per cent of control: 74%
MAP4K2 (human)
  kinase still bound, per cent of control: 100%
CAMKK2 (human)
  kinase still bound, per cent of control: 73%
FGFR4 (human)
  kinase still bound, per cent of control: 86%
TXK (human)
  kinase still bound, per cent of control: 79%
CAMK2G (human)
  kinase still bound, per cent of control: 79%
VRK2 (human)
  kinase still bound, per cent of control: 100%
PIP4K2C (human)
  kinase still bound, per cent of control: 100%
PRKD3 (human)
  kinase still bound, per cent of control: 97%
MAP3K7 (human)
  kinase still bound, per cent of control: 100%
PIK3CG (human)
  kinase still bound, per cent of control: 100%
PLK3 (human)
  kinase still bound, per cent of control: 100%
TLK2 (human)
  kinase still bound, per cent of control: 100%
MARK4 (human)
  kinase still bound, per cent of control: 71%
ACVR2B (human)
  kinase still bound, per cent of control: 100%
PDPK1 (human)
  kinase still bound, per cent of control: 100%
[3]
  kinase still bound, per cent of control: 85%
RET (human)
  kinase still bound, per cent of control: 52%
[4]
  kinase still bound, per cent of control: 90%
DMPK (human)
  kinase still bound, per cent of control: 100%
HUNK (human)
  kinase still bound, per cent of control: 100%
